These results are taken from ChEMBL document CHEMBL5608182, “Synthesis and evaluation of neuroactive steroids with novel pharmacophore at C-21 let identify a compound with advantageous PK profile and higher EC50 and Emax as PAM on GABAA receptor” (Eur J Med Chem, 2024).

Data set [1] is described as follows: Toxicity in male Sprague-Dawley rat assessed as loss of righting reflex at 23.3 micromol/kg, ip measured within 4 hrs. It is filed as organism-based. The note with it: in vivo, dose 23.3 µmol/kg.
The nature of data set [2]: Genotoxicity in Salmonella typhimurium TA100 assessed as induction of reverse mutation in presence of rat liver S9 fraction. It is filed as toxicity, subcellular. The note with it: salmonella enterica subsp. enterica serovar typhimurium.
Data set [3] can be described thus: Genotoxicity in Salmonella typhimurium TA102 assessed as induction of reverse mutation in presence of rat liver S9 fraction. It is filed as toxicity, subcellular. The note with it: salmonella enterica subsp. enterica serovar typhimurium.
Another data set concerns Rattus norvegicus. Put plainly: Antiseizure activity in PTZ-induced male Sprague-Dawley rat acute seizure model assessed as increase in latency to tonic seizures at 11.6 micromol/kg, po pretreated for 2 hrs followed by PTZ addition and measured after 60 mins (reference value: 77 +/- 13.4 sec). The data set is classed as functional. To be noted: dose 11.6 µmol/kg, time 180 min, 3 h.

Data set [4] in a line: Toxicity in male Sprague-Dawley rat assessed as risk of consciousness loss by measuring time for first loss of righting reflex at 36.6 micromol/kg, ip measured within 4 hrs. The data set is classed as organism-based. To be noted: in vivo, dose 36.6 µmol/kg.
The nature of data set [5]: Genotoxicity in Salmonella typhimurium TA100 assessed as induction of reverse mutation in absence of rat liver S9 fraction. The data set is classed as toxicity. To be noted: salmonella enterica subsp. enterica serovar typhimurium.
The nature of data set [6]: Genotoxicity in Salmonella typhimurium TA97 assessed as induction of reverse mutation in absence of rat liver S9 fraction. It is filed as toxicity. To be noted: salmonella enterica subsp. enterica serovar typhimurium.
Data set [7] can be described thus: Genotoxicity in Salmonella typhimurium TA97 assessed as induction of reverse mutation in presence of rat liver S9 fraction. It is filed as toxicity, subcellular. To be noted: salmonella enterica subsp. enterica serovar typhimurium.
Data set [8] can be described thus: Genotoxicity in Salmonella typhimurium TA98 assessed as induction of reverse mutation in presence of rat liver S9 fraction. The data set is classed as toxicity, subcellular. The note with it: salmonella enterica subsp. enterica serovar typhimurium.
Data set [9] is described as follows: Toxicity in male Sprague-Dawley rat assessed as loss of righting reflex at 7.8 micromol/kg, ip measured within 4 hrs. It is filed as organism-based. To be noted: in vivo, dose 7.8 µmol/kg.
A short description of data set [10]: Toxicity in male Sprague-Dawley rat assessed as risk of consciousness loss by measuring time for first loss of righting reflex at 12.2 micromol/kg, ip measured within 4 hrs. The data set is classed as organism-based. To be noted: in vivo, dose 12.2 µmol/kg.

In the case of `C[C@@]1(O)CC[C@H]2[C@H](CC[C@@H]3[C@@H]2CC[C@]2(C)[C@@H](C(=O)Cn4cnn(-c5cc(F)nc(F)c5)c4=O)CC[C@@H]32)C1`, the Activity entry in data set [1], in data set [2], in data set [3], in data set [5], in [6] and in data set [7] was “Non-Toxic” throughout. In addition, in data set [8], the Activity entry was “Non-Toxic”. For the same molecule, the Time in the data set with Rattus norvegicus was 2686 s; in data set [4], 57 min.

As to `C[C@@]1(O)CC[C@H]2[C@H](CC[C@@H]3[C@@H]2CC[C@]2(C)[C@@H](C(=O)Cn4cc(C#N)cn4)CC[C@@H]32)C1` [ZURANOLONE], the Activity entry in data set [9] is listed as “Non-Toxic”. Besides, in [10], the Time is recorded as 33 min.
